Experimental data as given in EP2711366A1, “Cationic triphenylamine derivatives activable by visible and Infra Red light for inducing and imaging apoptosis in cancer cells” (Institut Curie, priority 2012, dated 2014).

Columns and labels:
[1] = tested on: living MCF-7 cells; assay: One-photon confocal fluorescence microscopy, photo-induced nuclear translocation and membrane blebbing; type: cell-based
Experimental: One-photon epifluorescence and confocal images were obtained using a SP2 confocal microscope (Leica MicroSystem) equipped with an incubation chamber (37°C, CO2 5%). Excitation and emission filters for epifluorescence were 450-490 nm and 515-700 nm, respectively. A continuous laser line (458 nm) was used for excitation in the confocal mode.
The photo-induced nuclear translocation and membrane blebbing were next assessed using confocal fluorescence microscopy [λexc = 458 nm; emission slit settings: 560-720nm and 530-690nm for TP2Py and TP3Bzim, respectively] under experimental conditions similar to those described in experiment 1 for epifluorescence experiments. The corresponding transmission images illustrating the concomitant membrane blebbing are shown below the confocal fluorescence images. Living MCF7 cells were incubated with 2µM TP3Bzim or TP2Py for 2 hours before observation. As shown in Fig. 5A (TP2Py) and in Fig. 5B (TP3BZim), the results obtained with confocal imaging were similar to those obtained with epifluorescence imaging (experiment 1), with however, some discrepancies in the time courses of event appearance, most likely due to the power of the excitation source which is different between epifluorescence and confocal experiments (see below). […] Based on both criteria (re-localization of the fluorescence signal and the formation of blebs), the deduced fluences were 22 and 40 J/cm^2 for TP2Py and TP3Bzim, respectively. […]
The TP2Py compound at a concentration of 2 µM was first incubated with living MCF-7 cells for 2 hours and then observed with confocal microscope with varying illumination power of the laser source [λ=458 nm; emission slit setting: 560-720 nm]. […] For each condition, the fluorescence intensity in ROIs corresponding to the nucleus was plotted as a function of time (the initial time value, t = 0, represents the first observation) (FIG.7C). Using integration time based on tmax values, light dose values, determined from experiments performed at irradiance of 5.6 or 30 mW/cm^2, were consistent (27.6 and 27 J/cm^2 respectively). These values are in accordance with the above-mentioned value for TP2Py (fluence, 22 J/cm^2 in Fig. 5).
Living MCF-7 cells were treated with varying concentrations of TP2Py for two hours (2µM; 0.2µM and 0.02µM) and observed with a confocal microscope [λexc = 458nm; irradiance 30mW/cm^2, emission slit setting: 560-720nm.] (FIG 8A: 2µM; FIG 8B: 0.2µM; FIGBC: 0.02µM).

[2] = tested on: living MCF-7 cells; assay: Cell death induced by two-photon excitation (multiphoton microscopy); type: cell-based; settings: two-photon λex 860nm, irradiance 1.25W/cm^2
Experimental: A similar set up was used for two-photon images except that the excitation source was a 80-MHz mode-locked Mai Tai® Ti:Sapphire tunable laser (720-920 nm, 100 fs laser pulse; Spectra Physics, Mountain View, California) tuned to 860 nm.
Living MCF-7 cells were treated with 2 µM of TP2Py for 2 hours, exposed to two-photon excitation and simultaneously observed by multiphoton microscopy [using- a pulsed IR laser source for excitation Mai Tai, Spectra Physics, λex = 860nm; irradiance, 1.25W/cm^2, emission slit setting: 560-720nm].

[3] = tested on: PARP (poly-ADP ribose polymerase) cleavage in HeLa cells; assay: PARP cleavage by Western blot and cell morphology after illumination; type: cell-based; settings: 2 µM, 2h, 17 mW.cm^-2, 452 nm filter
Experimental: HeLa cells were plated in 6-well plates (4.10^5 cells/well) and incubated with 2 µM TP2Py for 2h at 37°C. After varying illumination times (up to 90min) at 17 mW.cm^-2 (Mercury lamp (130W; 380-600nm) + excitation filter centered at 452 nm (± 45 nm)), cells were collected by scraping, washed once in ice-cold PBS, treated with lysis buffer (1% Nonidet P-40, 20 mM Tris pH 8.0, 137 mM NaCl, 10% glycerol (v/v)) supplemented with 1 mM phenyl-methylsulfonyl fluoride, 1 mM sodium orthovanadate and anti-protease cocktail (Complete, Boehringer Mannheim, Germany) for 20 min on ice and further centrifuged at 10000g for 10 min. Protein concentrations were determined using the bicinchoninic acid method (micro BCA, Pierce, USA). 40µg of detergent soluble proteins were separated by SDS-PAGE under reducing conditions followed by Western blotting. Membranes were first incubated overnight at 4°C with the rabbit primary polyclonal antibody anti-PARP (Cell Signaling Technology). Membranes were then probed with horseradish peroxidase-labelled anti-rabbit IgG (dilution, 1/2000) (Dakocytomation). Detection was based on a chemiluminescence detection system (GE Healthcare, Orsay, France). […]
The cleavage of PARP, a hallmark of apoptosis, was assessed by Western blot using an anti-PARP antibody that recognizes both the entire and cleaved PARP (Fig. 11).

[4] = tested on: ROS (reactive oxygen species) in MCF7 cells; assay: Fluorescence detection of ROS generation with H2DCF-DA probe, flow cytometry; type: cell-based; settings: 2µM, 2 hours
Experimental: CF-7 cells were plated in 12-well plates (2.10^5 cells/well) and incubated with 2µM of TP2Py for 2h at 37°C. After a time illumination of 30 min [Irradiance, 40mW/cm^2. The source of excitation was a Mercury lamp (130 W; 380-600 nm) with an excitation filter centered at 452 nm (± 45 nm)], cells were gently scraped, individualized in PBS-EDTA (10 mM) and stained with 10µM of […] (H2DCF-DA) (Molecular Probe, USA) for 45 min. Cells were then washed in ice-cold HEPES buffer before analysis. Fluorescence signals of H2DCF-DA and TP2Py were measured by FACSCalibur flow cytometer using FL1 and FL2 detectors, respectively.
Different experiments are summarized below: • Control MCF7 cells were treated with DMSO (1%) (Fig.13A) without light exposure; • MCF7 cells were plated and treated with H2DCF-DA and 2µM TP2Py for 2 hours without light exposure (Fig.13B); • MCF7 cells were plated and treated with H2DCF-DA and 2µM TP2Py for 2 hours after a time illumination of 30 min (Fig.13C)
The horizontal (FL1-H) and vertical (FL2-H) axes correspond to fluorescence signals of H2DCF-DA and TP2Py, respectively.

[5] = tested on: HeLa cells
Experimental: Different experiments were conducted and described below: • MCF7 cells were treated with 2µM of TP2Py or TP3Bzim and exposed to illumination (Fig.9A); • HeLa cells were treated with 2µM of TP2Py or TP3Bzim and exposed to illumination (Fig.9B); • MCF7 cells were treated with TP2Py, 40 min illumination (black circles) or without illumination (white circles) (Fig.9C) • HeLa cells were treated with TP2Py [30 min illumination (black circles) or without illumination (white circles)] or TP3Bzim [15 min illumination (black triangles) or without illumination (white triangles)]
For each experiment, the source of excitation was a Mercury lamp (130W; 380-600nm) with an excitation filter centered at 452nm (± 45 nm), irradiance, 60mW/cm^2.
First, the experiment was calibrated by determining the time of illumination exposure which leads to the toxicity 50%, for a given concentration of TPA (2 µM) and for an irradiance of 60mW/cm^2. […] This characteristic time was then used for the plots shown in Fig. 9C and 9D which represent the cell viability as a function of TPA concentration (in HeLa and MCF-7 cells, respectively).

[6] = tested on: DNA; settings: cited from earlier work
[7] = 2µM, 2 hours, λexc 458 nm, irradiance 30 mW/cm^2

C[n+]1ccc(/C=C/c2ccc(N(c3ccccc3)c3ccc(/C=C/c4cc[n+](C)cc4)cc3)cc2)cc1 [TP2Py]
time at which the first blebs appeared ([1]; 20nM, constant light excitation, transmission mode): 75 min | light dose ([1]; 0.2µM, irradiance 30 mW/cm^2): 306 J/cm^2 | tmax of nuclear re-localization ([1]; 0.2µM, irradiance 30 mW/cm^2): > 2 h | deduced fluence (re-localization of the fluorescence signal and formation of blebs) ([1]; 2µM, 2 hours, confocal, λexc 458 nm (Fig. 5)): 22 J/cm^2 | lag period before increase of fluorescence emission intensity in the nucleus [1, 7]: 2 to 4 min | time of maximum fluorescence emission intensity in the nucleus [1, 7]: 8 to 10 min | light dose (integration time based on tmax) ([1]; 2 µM, irradiance 5.6 mW/cm^2): 27.6 J/cm^2 | tstart of nuclear re-localization ([1]; 2 µM, irradiance 5.6 mW/cm^2): 50 min | light dose (integration time based on tmax) ([1]; 2 µM, irradiance 30 mW/cm^2): 27 J/cm^2 | tmax of nuclear re-localization ([1]; 2 µM, irradiance 30 mW/cm^2): 0.25 h | tstart of nuclear re-localization ([1]; 2 µM, irradiance 30 mW/cm^2): 4 min | start of re-localization into the nucleus after the first excitation ([2]; 2 µM, 2 hours): 5 to 15 min | light dose [2]: ≈ 300 J/cm^2 | illumination time after which PARP cleavage was detected [3]: 60 min | HMFI population (H2DCF-DA positive, TP2Py positive) ([4]; 30 min illumination, 40mW/cm^2): 15.4% | HMFI population (H2DCF-DA positive, TP2Py positive) ([4]; without light exposure): 4.9% | dark toxicity (concentration below which negligible) [5]: ≥ 50 µM | maximum of emission in vitro, DNA-bound ([6]; Allains et al. 2007): 634 nm | λmax,emission ([6]; b156 attributes 634 nm to DNA-bound TP2Py in vitro (Allains et al. 2007)): 634 nm
